Molecules are shown by their SMILES.

The values below come from patent publication EP4140481A1, “PROTEIN-OLIGOMER BINDING AGENTS AND THERAPEUTIC USES THEREOF” (Galyan Bio, Inc., priority 2021, dated 2023).

This assay deals with T1, mHTT (Homo sapiens, UniProt P42858).
T1 construct: host or cells: ST HDH Q111/111 mouse striatal cell line (knock-in locus)
The assay can be described thus: mHTT levels in striatal cells (immunocytochemistry). Type of assay: cell-based, mouse. The conditions noted are these: for remaining activity at 10 µM / mHTT after treatment / Nuclear mHTT after treatment: STHdh 111/111, 3 hours heat shock, 48 hours treatment; for remaining activity at 10 µM / mHTT after treatment: percentage in comparison to untreated STHdh 111/111, 3B5H10 antibody, 10 µM; for remaining activity at 10 µM: read-out: mHTT after treatment. As for the experimental part: (§1) Staining - Cells were permeabilized with 0.3% Triton X-100 in 4 °C PBS (pH 7.4 from ThermoFisher) for 10 minutes. Then the cells were washed two times with 4 °C PBS. Subsequently, cells are blocked with 3% NGS (normal goat serum from Thermo Fisher) in 4 ° C PBS for 1 hour. Cells were incubated with primary antibodies in blocking buffer (PBS, 3% NGS, 0.02% NaN3) over night at 4 °C. Primary antibodies were mouse antipolyglutamine monoclonal antibody 3B5H10 (Sigma-Aldrich) at 1:250 dilution and Guinea Pig anti-MAP2 polyclonal antibody (Synaptic Systems) at 1:500 dilution. 3B5H10 binds to diffuse mHTT. Diffuse mHTT is a monomeric and small oligomeric mHTT. Diffuse mHTT is correlated to pathological parameters in Huntington's disease. Compounds that bind the mHTT will reduce the levels of diffuse mHTT detected.
Cells were washed 2 times with 4 °C PBS, and then incubated with secondary antibodies at 1:2000 dilution in blocking buffer for 1hour at room temperature. […] Cells were washed 2 times with 4 °C PBS, and then the nuclei were counterstain with DAPI (ThermoFisher) for 10 min at room temperature in the dark. Cells were washed 2 times with 4 °C PBS, and then 4 °C PBS was added to cells and then images were acquired. […] Table 11: Antibodies Used in Immunocytochemistry Studies
Fluorescence Imaging - Imaging sessions were performed on a confocal microscope system (Carl Zeiss Microscopy) equipped with a dual spinning disk unit (Yokogawa). All components of the imaging system were controlled via the ZEN 2 software suite (Carl Zeiss Microscopy). The laser lines used were 405 nm, 488 nm and 639 nm to excite DAPI or the respective fluorophores. […] Nested t test was performed to calculate the significance amongst repeated measurements using GraphPad Prism software.
as §1, with “For LC3 staining primary antibodies were mouse anti-LC3 mab (5F10) (nanoTools) at 1:500 dilution” for “3B5H10 binds to diffuse mHTT. Diffuse mHTT is a monomeric”, “Guinea Pig anti-MAP2 polyclonal antibody (Synaptic Systems) at 1:500 dilution.” for “small oligomeric mHTT. Diffuse mHTT is correlated to pathological parameters in Huntington's disease. Compounds that bind the mHTT will reduce the levels of diffuse mHTT detected.”
Cells were washed 2 times with 4 °C PBS, and then incubated with secondary antibodies at 1:2000 dilution in blocking buffer for 1hour at room temperature. […] Cells were washed 2 times with 4 °C PBS, and then the nuclei were counterstain with DAPI (ThermoFisher) for 10 min at room temperature in the dark. Cells were washed 2 times with 4 °C PBS, and then 4 °C PBS was added to cells and then images were acquired.
EC 50 value was determined with non-linear regression.

T1 sequence (P42858 with tags, fused parts or gaps with the stated changes): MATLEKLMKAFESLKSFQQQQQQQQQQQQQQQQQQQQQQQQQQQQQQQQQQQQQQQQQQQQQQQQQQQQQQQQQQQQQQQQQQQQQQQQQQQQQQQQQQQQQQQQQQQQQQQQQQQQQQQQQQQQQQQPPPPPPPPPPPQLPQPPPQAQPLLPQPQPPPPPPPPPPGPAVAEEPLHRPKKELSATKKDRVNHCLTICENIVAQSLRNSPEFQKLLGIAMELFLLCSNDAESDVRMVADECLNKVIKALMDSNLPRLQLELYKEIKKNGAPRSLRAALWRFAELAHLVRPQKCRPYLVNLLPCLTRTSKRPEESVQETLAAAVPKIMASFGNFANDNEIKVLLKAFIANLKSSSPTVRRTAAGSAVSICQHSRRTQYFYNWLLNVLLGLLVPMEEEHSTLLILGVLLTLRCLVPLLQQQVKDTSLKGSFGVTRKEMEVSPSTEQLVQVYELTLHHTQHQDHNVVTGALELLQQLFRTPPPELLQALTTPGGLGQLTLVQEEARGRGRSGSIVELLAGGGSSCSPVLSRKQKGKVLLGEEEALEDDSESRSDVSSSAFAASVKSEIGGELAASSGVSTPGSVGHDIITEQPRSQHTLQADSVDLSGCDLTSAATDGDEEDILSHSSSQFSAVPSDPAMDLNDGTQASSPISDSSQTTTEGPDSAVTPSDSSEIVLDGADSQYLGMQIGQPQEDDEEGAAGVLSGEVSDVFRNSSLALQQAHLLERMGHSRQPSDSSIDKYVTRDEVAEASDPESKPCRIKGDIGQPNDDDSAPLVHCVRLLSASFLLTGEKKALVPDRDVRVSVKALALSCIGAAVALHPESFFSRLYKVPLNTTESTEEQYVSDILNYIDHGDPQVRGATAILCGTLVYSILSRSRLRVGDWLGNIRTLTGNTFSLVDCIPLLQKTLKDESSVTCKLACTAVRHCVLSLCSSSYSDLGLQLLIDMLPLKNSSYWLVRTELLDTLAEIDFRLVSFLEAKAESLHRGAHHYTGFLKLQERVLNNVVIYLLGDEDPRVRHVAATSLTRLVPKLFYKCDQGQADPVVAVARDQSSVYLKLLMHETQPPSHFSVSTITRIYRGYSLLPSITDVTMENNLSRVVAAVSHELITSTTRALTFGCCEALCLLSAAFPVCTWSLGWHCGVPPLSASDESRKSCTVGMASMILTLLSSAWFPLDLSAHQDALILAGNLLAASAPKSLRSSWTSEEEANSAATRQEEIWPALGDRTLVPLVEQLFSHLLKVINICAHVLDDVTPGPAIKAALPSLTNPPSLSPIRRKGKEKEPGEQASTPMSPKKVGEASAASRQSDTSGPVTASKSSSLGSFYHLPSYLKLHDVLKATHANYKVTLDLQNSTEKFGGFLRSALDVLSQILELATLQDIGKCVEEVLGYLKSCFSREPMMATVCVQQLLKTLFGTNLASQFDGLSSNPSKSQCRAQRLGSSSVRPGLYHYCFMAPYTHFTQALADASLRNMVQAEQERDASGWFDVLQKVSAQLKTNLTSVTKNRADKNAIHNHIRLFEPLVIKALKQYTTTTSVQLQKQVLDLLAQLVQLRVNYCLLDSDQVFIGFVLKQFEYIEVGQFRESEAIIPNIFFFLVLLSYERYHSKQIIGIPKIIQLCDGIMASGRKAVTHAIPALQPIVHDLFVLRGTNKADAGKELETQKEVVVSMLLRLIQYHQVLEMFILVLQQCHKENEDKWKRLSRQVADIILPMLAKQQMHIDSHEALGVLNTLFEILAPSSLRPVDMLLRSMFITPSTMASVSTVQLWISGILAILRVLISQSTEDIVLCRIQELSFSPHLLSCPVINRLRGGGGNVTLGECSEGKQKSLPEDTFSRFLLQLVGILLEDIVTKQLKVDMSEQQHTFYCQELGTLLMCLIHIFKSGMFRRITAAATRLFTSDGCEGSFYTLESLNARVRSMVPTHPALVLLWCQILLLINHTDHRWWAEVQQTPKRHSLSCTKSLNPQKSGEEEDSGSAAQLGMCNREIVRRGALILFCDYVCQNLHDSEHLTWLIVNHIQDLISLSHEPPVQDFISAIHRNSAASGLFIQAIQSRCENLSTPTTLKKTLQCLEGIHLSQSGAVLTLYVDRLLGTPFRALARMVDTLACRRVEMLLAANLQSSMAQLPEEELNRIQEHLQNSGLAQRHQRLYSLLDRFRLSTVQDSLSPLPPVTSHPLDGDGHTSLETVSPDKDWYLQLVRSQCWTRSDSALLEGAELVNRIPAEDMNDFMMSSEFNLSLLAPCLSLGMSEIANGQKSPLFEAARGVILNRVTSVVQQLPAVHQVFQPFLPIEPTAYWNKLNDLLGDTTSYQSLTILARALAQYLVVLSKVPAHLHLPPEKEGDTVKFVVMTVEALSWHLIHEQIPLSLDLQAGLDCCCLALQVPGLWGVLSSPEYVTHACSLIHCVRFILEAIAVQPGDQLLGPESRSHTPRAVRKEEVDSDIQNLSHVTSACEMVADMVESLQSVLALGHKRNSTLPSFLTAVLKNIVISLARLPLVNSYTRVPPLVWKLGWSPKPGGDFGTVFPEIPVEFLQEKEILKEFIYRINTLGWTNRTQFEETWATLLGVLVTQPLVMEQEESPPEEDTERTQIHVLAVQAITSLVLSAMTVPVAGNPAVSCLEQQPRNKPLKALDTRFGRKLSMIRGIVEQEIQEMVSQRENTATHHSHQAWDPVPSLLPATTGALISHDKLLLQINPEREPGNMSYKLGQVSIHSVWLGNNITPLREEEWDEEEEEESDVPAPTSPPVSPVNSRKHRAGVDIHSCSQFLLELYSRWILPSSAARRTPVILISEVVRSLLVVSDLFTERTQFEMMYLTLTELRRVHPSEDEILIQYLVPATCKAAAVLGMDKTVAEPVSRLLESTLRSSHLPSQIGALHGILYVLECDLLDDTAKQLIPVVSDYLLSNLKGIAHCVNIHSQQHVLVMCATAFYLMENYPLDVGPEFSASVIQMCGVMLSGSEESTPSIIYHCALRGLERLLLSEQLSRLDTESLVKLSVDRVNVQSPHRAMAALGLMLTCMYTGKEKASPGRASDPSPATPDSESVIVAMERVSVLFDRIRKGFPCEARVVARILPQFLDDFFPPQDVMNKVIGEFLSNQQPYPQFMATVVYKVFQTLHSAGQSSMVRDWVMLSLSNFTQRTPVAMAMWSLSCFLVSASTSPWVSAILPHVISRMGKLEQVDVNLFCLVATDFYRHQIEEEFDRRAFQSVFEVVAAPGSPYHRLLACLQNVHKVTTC

On to `CCc1c(C)[nH]c2ccc(C(=O)NCCN(C)C)cc12` [Compound 1], for which the remaining activity at 10 µM turned out to be 30%. For the molecule `Cc1[nH]c2ccc(C(=O)NCCN3CCOCC3)cc2c1C` [Compound 2, 2,3-dimethyl-N-(2-morpholinoethyl)-1H-indole-5-carboxamide], the remaining activity at 10 µM was 32%. `CN(C)CCNC(=O)c1ccc2[nH]c3c(c2c1)CCCC3` [Compound 3]: the remaining activity at 10 µM was 33%. Take `CN(C)CCNC(=O)c1ccc2[nH]c3c(c2c1)CCC3` [Compound 5]: the remaining activity at 10 µM was found to be 36%.

Regarding `O=C(NCCN1CCOCC1)c1ccc2[nH]c3c(c2c1)CCC3` [Compound 8], the remaining activity at 10 µM is 38%.

`CN1CCN(CCNC(=O)c2ccc3[nH]c4c(c3c2)CCC4)CC1` [Compound 10]: the remaining activity at 10 µM was 40%. Consider `CCc1[nH]c2ccc(C(=O)NCCN3CCCC3)cc2c1C` [Compound 11], for which the remaining activity at 10 µM came out at 40%.

Turning to `O=C(NCCN1CCOCC1)c1ccc2[nH]c3c(c2c1)CCCC3` [Compound 12], the remaining activity at 10 µM worked out at 40%. Regarding `O=C(NCCN1CCCC1)c1ccc2[nH]c3c(c2c1)CCCC3` [Compound 13], the remaining activity at 10 µM turned out to be 41%.

Take `CCc1c(C)[nH]c2ccc(C(=O)NCCN3CCN(C)CC3)cc12` [Compound 15]: the remaining activity at 10 µM came out at 42%. `O=C(NCCN1CCCCC1)c1ccc2[nH]c3c(c2c1)CCCC3` [Compound 16]: the remaining activity at 10 µM was determined as 43%. The same measure, in the same setting: the figure for `Cc1[nH]c2ccc(C(=O)NCCN3CCC3)cc2c1C` [Compound 17, N-(2-(Azetidin-1-yl)ethyl)-2,3-dimethyl-1H-indole-5-carboxamide] is 44%. `CCN(CC)CCNC(=O)c1ccc2c(c1)c(C)c(C)n2C` [Compound 19, N-(2-(Diethylamino)ethyl)-1,2,3-dimethyl-1H-indole-5-carboxamide]: the mHTT after treatment came out at 45%. In the case of `O=C(NCCN1CCC1)c1ccc2[nH]c3c(c2c1)CCCC3` [Compound 20], the remaining activity at 10 µM was 45%. Also, the “mHTT reduction with MG132 in comparison to without MG132” value (STHdh 111/111 striatal cells) is on record as “less”. In the case of `CCN(CC)CCNC(=O)c1ccc2[nH]c(C)c(C)c2c1` [Compound 21, N-(2-(Diethylamino)ethyl)-2,3-dimethyl-1H-indole-5-carboxamide], the remaining activity at 10 µM was 46%. In the case of `CCc1[nH]c2ccc(C(=O)NCCN3CCCCC3)cc2c1C` [Compound 23], the remaining activity at 10 µM came out at 47%. On to `Cc1c(C)n(C)c2ccc(C(=O)NCCN3CCN(C)C(C)C3)cc12` (stereo not drawn) [Compound 25, N-(2-(3,4-Dimethylpiperazin-1-yl)ethyl)-1,2,3-trimethyl-1H-indole-5-carboxamide], for which the remaining activity at 10 µM turned out to be 48%.

For `CCN(CC)CCNC(=O)c1ccc2[nH]c3c(c2c1)CCC3` [Compound 27], the remaining activity at 10 µM turned out to be 50%. For the molecule `Cc1[nH]c2ccc(C(=O)NCCN3CCCC3)cc2c1C` [Compound 29, 2,3-Dimethyl-N-(2-(pyrrolidin-1-yl)ethyl)-1H-indole-5-carboxamide], the remaining activity at 10 µM was 51%. Regarding `CCc1[nH]c2ccc(C(=O)NCCN3CCOCC3)cc2c1C` [Compound 30], the remaining activity at 10 µM was 51%. As to `Cc1c(C)n(C)c2ccc(C(=O)NCCN3CCCCC3)cc12` [Compound 31, 1,2,3-Trimethyl-N-(2-(piperidin-1-yl)ethyl)-1H-indole-5-carboxamide], the remaining activity at 10 µM was 52%. Turning to `CCc1c(C)[nH]c2ccc(C(=O)NCCN3CCOCC3)cc12` [Compound 32], the remaining activity at 10 µM came out at 53%. `CCc1c(C)[nH]c2ccc(C(=O)NCCN3CCC3)cc12` [Compound 33]: the remaining activity at 10 µM stood at 55%. `CN1CCN(CCNC(=O)c2ccc3[nH]c4c(c3c2)CCCC4)CC1` [Compound 36]: the remaining activity at 10 µM was determined as 56%. With `CCc1[nH]c2ccc(C(=O)NCCN(C)C)cc2c1C` [Compound 37], the remaining activity at 10 µM turned out to be 56%. `CCc1[nH]c2ccc(C(=O)NCCN(CC)CC)cc2c1C` [Compound 38]: the remaining activity at 10 µM came out at 57%.

In the case of `Cc1c(C)n(C)c2ccc(C(=O)NCCN(C)C)cc12` [Compound 41, N-(2-(Dimethylamino)ethyl)-1,2,3-trimethyl-1H-indole-5-carboxamide], the remaining activity at 10 µM came out at 65%. In the case of `O=C(NCCN1CCC1)c1ccc2[nH]c3c(c2c1)CCC3` [Compound 42], the remaining activity at 10 µM was 65%. Regarding `CC(C)N(CCNC(=O)c1ccc2[nH]ccc2c1)C(C)C` [Compound 43], the remaining activity at 10 µM turned out to be 65%.

The molecule `Cc1c(C)n(C)c2ccc(C(=O)NCCN3CCC3)cc12` [Compound 44, N-(2-(Azetidin-1-yl)ethyl)-1,2,3-dimethyl-1H-indole-5-carboxamide] gave a mHTT after treatment of 66%. With `Cc1c(C)n(C)c2ccc(C(=O)NCCN3CCCC3)cc12` [Compound 46, 1,2,3-Trimethyl-N-(2-(pyrrolidin-1-yl)ethyl)-1H-indole-5-carboxamide], the remaining activity at 10 µM amounted to 66%. For `Cc1[nH]c2ccc(C(=O)NCCN3CCCCC3)cc2c1C` [Compound 47, 2,3-Dimethyl-N-(2-(piperidin-1-yl)ethyl)-1H-indole-5-carboxamide], the remaining activity at 10 µM was 66%.

`Cc1c(C)n(C)c2ccc(C(=O)NCCN3CCCCC3C)cc12` (stereo not drawn) [Compound 48]: the remaining activity at 10 µM came to 68%. Consider `Cc1[nH]c2ccc(S(=O)(=O)NCCN3CCOCC3)cc2c1C` [Compound 127], for which the “Nuclear mHTT after treatment” value came to 23.9%. In the case of `Cc1[nH]c2ccc(S(=O)(=O)NCCN3CCCCC3)cc2c1C` [Compound 128], the “Nuclear mHTT after treatment” value was 79.9%.
